Measurements from patent publication US20140121235A1, “Method for Treating S6K-Overexpressing Cancers” (Rush University Medical Center, priority 2012, published 2014).

Legend:
[1] = biological target: recombinant p70 S6 kinase (S6K1) (Homo sapiens, UniProt P23443); experiment: In vitro p70 S6 kinase assay (ADP-Glo Kinase assay system); type: biochemical; settings: 30 min pre-incubation, ATP 10 μM, 1 hr, read-out: IC50, inhibition of recombinant S6K1 activity
Method: Leflunomide and A77 1726 diluted at the final concentrations as indicated were pre-mixed with S6K1 for 30 min, followed by the addition of peptide substrate of S6K1 and incubation for 1 hr. S6K1 activity was measured by using a ADP-Glo™ system. The experiment was repeated with similar results. The data represents the mean±standard deviation from one experiment in triplicate.
The ability of lefiunomide and A77 1726 to inhibit p70 S6 kinase assay was conducted by using an ADP-Glo™ Kinase assay system (Promega Corporation, Madison, Wis.). Briefly, A77 1726 or leflunomide diluted in the kinase buffer was mixed with recombinant p70 S6 kinase (100 ng/reaction) and incubated at room temperature for 30 min. Peptide substrate of p70 S6 kinase (5 μg/reaction) and ATP (10 μM, final concentration) was added, with a total final volume of 25 μl. After incubation for 1 hr, ADP-Glo™ reagent (25 μl) was added to each reaction. After incubation for 40 min, kinase detection substrate (luciferin) (50 μl/reaction) was added. After incubation fix 30 min, luciferase activity was measured by reading in a luminescence plate reader. The experiment was conducted in triplicate and repeated once with similar results. The data from one experiment were presented as mean±standard deviation.

[2] = system: ribosomal protein S6^S235/S236 phosphorylation; experiment: Western blot of S6 phosphorylation in A375 cells; type: cell-based; settings: Homo sapiens, A-375; read-out: IC50 to inhibit S6 phosphorylation in cell culture
Method: (§1) A375 cells seeded in a 6-well plate were starved in DMEM medium containing 0.5% FBS for 2 hr and treated with the indicated concentration of A77 1726 or PLX 4720 (1 μM) for another 2 hr (A) or treated with A77 1726 (100 μM) for the indicated time (B & C). Cells were harvested and analyzed for protein phosphorylation by specific antibodies as indicated. Protein loading was monitored by stripping membrane and re-probing with antibodies against non-phosphorylated proteins. […] A375 cells seeded in a 6-well plate were starved in DMEM medium containing 05% FBS for 2 hr and treated with the indicated concentration of A77 1726 in the absence or presence of uridine (200 μM). Phosphorylated and total proteins were analyzed by Western blot as described above.
(§2) A375 cells seeded in 6-well plates were starved in DMEM medium containing 0.5% FBS for 2 hr and then pre-treated with vehicle (0.1% dimethyl sulfoxide), LY294002 (10 μM) (A), PPP (1 μM) (B), or the inhibitors of the MAP kinase pathway (PLX4720, 1 μM; U0126, 10 μM; PD98059, 10 μM) (C) for 1 hr. Cells were then treated with A77 1726 (100 μM) or rapamycin (20 nM) as indicated for 2 hr. Cells were harvested and analyzed for protein phosphorylation by specific antibodies as indicated. Protein loading was monitored by stripping membrane and re-probing with antibodies against non-phosphorylated proteins.
(§3) Cells grown in 6-well plates were harvested and lysed in NP-40 lysis buffer (50 mM Tris-HCI (pH 8.0), 150 mM NaCl, 1% NP-40, 5 mM EDTA, 10 μg/ml aprotinin, 10 μg/ml leupeptin, and 1 mM phenylmethylsulfonyl fluoride). After incubation on ice for 30 min, the cell lysates were prepared by spinning down at 4° C., 15,000 rpm for 15 min. After electrophoresis and transfer to Immobolin membrane, proteins of interest were probed with their specific antibodies, followed by horseradish peroxidase-conjugated goat anti-rabbit IgG and SuperSignal Western Pico enhanced chemiluminoscence substrate (Pierce Chemical Co., Rockford, Ill.).
(§4) The PI-3 and MAP kinase pathways play an important role in cell proliferation, differentiation, and cell cycle progress. Multiple genes in these two pathways are frequently mutated and have a commanding role in driving tumorigenesis and tumor cell proliferation (2; 3). […] Here we tested whether A77 1726 affected the activation of MAP and PI-3 kinase pathways. A375 cells grown in 6-well plates were starved in the media containing 0.5% FBS for 2 hr and then treated with the indicated concentration of A77 1726. […] We next explored the effect of A77 1726 in phosphorylation of the molecules in the PI-3 kinase pathway.

[3] = system: ERK1/2^T202/Y204 and MEK1/2^S217/S221 phosphorylation; experiment: Western blot of MAP kinase pathway phosphorylation in A375 cells; type: cell-based
Method: as §1, §2, §3, §4

[4] = system: Raf-1 phosphorylation; experiment: Western blot of Raf-1 phosphorylation in A375 cells; type: cell-based
Method: A375 cells seeded in a 6-well plate were starved in DMEM medium containing 0.5% FBS for 2 hr and treated with the indicated concentration of A77 1726 or PLX 4720 (1 μM) for another 2 hr (A) or treated with A77 1726 (100 μM) for the indicated time (B & C). Cells were harvested and analyzed for protein phosphorylation by specific antibodies as indicated. Protein loading was monitored by stripping membrane and re-probing with antibodies against non-phosphorylated proteins. (D) Uridine fails to reverse the effect of A77 1726 on the PI-3 and MAP kinase pathways. A375 cells seeded in a 6-well plate were starved in DMEM medium containing 05% FBS for 2 hr and treated with the indicated concentration of A77 1726 in the absence or presence of uridine (200 μM). Phosphorylated and total proteins were analyzed by Western blot as described above.
Cells grown in 6-well plates were harvested and lysed in NP-40 lysis buffer (50 mM Tris-HCI (pH 8.0), 150 mM NaCl, 1% NP-40, 5 mM EDTA, 10 μg/ml aprotinin, 10 μg/ml leupeptin, and 1 mM phenylmethylsulfonyl fluoride). After incubation on ice for 30 min, the cell lysates were prepared by spinning down at 4° C., 15,000 rpm for 15 min. […]

recombinant p70 S6 kinase (S6K1), sequence (P23443 whole entry): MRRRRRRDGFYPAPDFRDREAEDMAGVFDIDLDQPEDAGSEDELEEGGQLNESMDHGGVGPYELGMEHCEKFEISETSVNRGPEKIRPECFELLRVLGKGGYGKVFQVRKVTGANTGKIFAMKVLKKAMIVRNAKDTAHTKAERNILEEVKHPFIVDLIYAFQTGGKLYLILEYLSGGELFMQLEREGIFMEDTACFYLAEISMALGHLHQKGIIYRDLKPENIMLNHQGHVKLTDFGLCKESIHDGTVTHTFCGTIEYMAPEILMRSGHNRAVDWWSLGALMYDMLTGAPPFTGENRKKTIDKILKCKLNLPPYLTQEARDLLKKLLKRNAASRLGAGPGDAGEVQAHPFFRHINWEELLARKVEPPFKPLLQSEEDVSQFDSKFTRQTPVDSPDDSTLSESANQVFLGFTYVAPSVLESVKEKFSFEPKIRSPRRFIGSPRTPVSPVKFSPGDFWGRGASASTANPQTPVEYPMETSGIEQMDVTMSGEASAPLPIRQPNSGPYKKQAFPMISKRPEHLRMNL

Cc1oncc1C(=O)Nc1ccc(C(F)(F)F)cc1 [leflunomide]
IC50 [1]: ~55 µM | IC50 [2]: 50 to 75 µM | effect on ERK1/2 and MEK phosphorylation ([3]; A375 cells starved in 0.5% FBS, A77 1726 or leflunomide at indicated concentrations, 2 hr): rapidly and potently induced | potency in inducing feedback activation of the MAP kinase pathway ([3]; A375 cells, compared with A77 1726): slightly more potent than A77 1726 | effect on Raf-1 phosphorylation [4]: no increased Raf-1 phosphorylation
